Laboratory results: patent US20100267561A1, “HERBICIDAL PYRIDAZINONE DERIVATIVES” (priority 2007, published 2010)

Key:
Test in all cases: Test B pre-/postemergence plant response
Format in all cases: in vivo
[1] = system: Italian ryegrass (Lolium multiflorum); conditions: for Ryegrass, Italian plant response rating: 8 g ai/ha
Procedure, shortened: (§1)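 Visual scoring from 0 (no effect) to 100 (complete control) against untreated controls was done 13 to 15 days after greenhouse treatment. Chemicals were formulated in a surfactant-containing non-phytotoxic solvent and applied to soil preemergence or to 1- to 4-leaf (2-18 cm) plants postemergence.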

[2] = system: bermudagrass (Cynodon dactylon); conditions: for Bermudagrass plant response rating: 8 g ai/ha
Procedure, shortened: as §1

[3] = system: blackgrass (Alopecurus myosuroides); conditions: for Blackgrass plant response rating: 8 g ai/ha
Procedure, shortened: as §1

[4] = system: common ragweed (Ambrosia elation); conditions: for Ragweed plant response rating: 8 g ai/ha
Procedure, shortened: as §1

corn (Zea mays) = conditions: for Corn plant response rating: 8 g ai/ha
Procedure, shortened: as §1

[5] = system: eastern black (E.B.) nightshade (Solanum ptycanthum); conditions: Preemergence
Procedure, shortened: as §1

[6] = system: giant foxtail (Setaria faberii); conditions: for Foxtail, Giant plant response rating: 8 g ai/ha
Procedure, shortened: as §1

[7] = system: johnsongrass (Sorghum halepense); conditions: for Johnsongrass plant response rating: 8 g ai/ha
Procedure, shortened: as §1

kochia (Kochia scoparia) = conditions: for Kochia plant response rating: 8 g ai/ha
Procedure, shortened: as §1

[8] = system: lambsquarters (Chenopodium album); conditions: for Lambsquarters plant response rating: 8 g ai/ha
Procedure, shortened: as §1

[9] = system: morningglory (Ipomoea coccinea); conditions: for Morningglory plant response rating: 8 g ai/ha
Procedure, shortened: as §1

[10] = system: surinam grass (Brachiaria decumbens); conditions: for Surinam Grass plant response rating: 8 g ai/ha
Procedure, shortened: as §1

wild oat (Avena fatua) = conditions: for Oat, Wild plant response rating: 8 g ai/ha
Procedure, shortened: as §1

[11] = system: yellow nutsedge (Cyperus esculentus); conditions: for Nutsedge, Yellow plant response rating: 8 g ai/ha
Procedure, shortened: as §1

[12] = Postemergence, 16 g ai/ha, scale 0 to 100
[13] = Postemergence, 31 g ai/ha, scale 0 to 100, 0 no effect, 100 complete control
[14] = Postemergence, 62 g ai/ha, scale 0 to 100, 0 no effect, 100 complete control
[15] = Preemergence, 16 g ai/ha, scale 0 to 100 (0 no effect, 100 complete control)
[16] = Preemergence, 31 g ai/ha, 0 to 100 scale, 0 no effect, 100 complete control
[17] = Preemergence, 62 g ai/ha, scale 0 to 100

Cc1cc(-c2ccc(Cl)cc2)nn1-c1c(OC(=O)CC(C)C)cnn(C)c1=O [Compound 37]
Ryegrass, Italian plant response rating ([1]; postemergence, 0-100 scale): 60 | Plant response rating, Ryegrass, Italian [1, 12]: 90 | Plant response rating, Ryegrass, Italian [1, 13]: 98 | Plant response rating, Ryegrass, Italian [1, 14]: 100 | Plant response rating, Ryegrass, Italian [1, 15]: 90 | Plant response rating, Ryegrass, Italian [1, 16]: 98 | Plant response rating, Ryegrass, Italian [1, 17]: 100 | Ryegrass, Italian plant response rating ([1]; Preemergence, scale 0 to 100): 45 | Bermudagrass plant response rating ([2]; postemergence, 0-100 scale): 80 | Plant response rating, Bermudagrass [2, 12]: 85 | Plant response rating, Bermudagrass [2, 13]: 100 | Plant response rating, Bermudagrass [2, 14]: 100 | Bermudagrass plant response rating ([2]; Preemergence, scale 0 to 100 (0 no effect, 100 complete control)): 90 | Plant response rating, Bermudagrass [2, 15]: 90 | Plant response rating, Bermudagrass [2, 16]: 100 | Plant response rating, Bermudagrass [2, 17]: 100 | Blackgrass plant response rating ([3]; postemergence, 0-100 scale): 10 | Plant response rating, Blackgrass [3, 12]: 75 | Plant response rating, Blackgrass [3, 13]: 90 | Plant response rating, Blackgrass [3, 14]: 90 | Plant response rating, Blackgrass [3, 15]: 100 | Plant response rating, Blackgrass [3, 16]: 100 | Plant response rating, Blackgrass [3, 17]: 100 | Blackgrass plant response rating ([3]; Preemergence, scale 0 to 100): 95 | Ragweed plant response rating ([4]; postemergence, 0-100 scale): 0 | Plant response rating, Ragweed [4, 12]: 0 | Plant response rating, Ragweed [4, 13]: 0 | Plant response rating, Ragweed [4, 14]: 0 | Plant response rating, Ragweed [4, 15]: 0 | Plant response rating, Ragweed [4, 16]: 0 | Plant response rating, Ragweed [4, 17]: 0 | Ragweed plant response rating ([4]; Preemergence, scale 0 to 100): 0 | Corn plant response rating (corn (Zea mays); postemergence, 0-100 scale): 45 | Plant response rating, Corn (corn (Zea mays); [12]): 95 | Plant response rating, Corn (corn (Zea mays); [13]): 100 | Plant response rating, Corn (corn (Zea mays); [14]): 100 | Plant response rating, Corn (corn (Zea mays); [15]): 40 | Plant response rating, Corn (corn (Zea mays); [16]): 95 | Plant response rating, Corn (corn (Zea mays); [17]): 98 | Corn plant response rating (corn (Zea mays); Preemergence, scale 0 to 100): 40 | Plant response rating, Nightshade, E. B. ([5]; 16 g ai/ha, scale 0 to 100 (0 no effect, 100 complete control)): 0 | Plant response rating, Nightshade, E. B. ([5]; 31 g ai/ha, 0 to 100 scale, 0 no effect, 100 complete control): 0 | Plant response rating, Nightshade, E. B. ([5]; 62 g ai/ha, scale 0 to 100): 0 | Nightshade, E. B. plant response rating ([5]; 8 g ai/ha, scale 0 to 100): 0 | Foxtail, Giant plant response rating ([6]; postemergence, 0-100 scale): 30 | Plant response rating, Foxtail, Giant [6, 12]: 70 | Plant response rating, Foxtail, Giant [6, 13]: 85 | Plant response rating, Foxtail, Giant [6, 14]: 100 | Plant response rating, Foxtail, Giant [6, 15]: 100 | Plant response rating, Foxtail, Giant [6, 16]: 100 | Plant response rating, Foxtail, Giant [6, 17]: 100 | Foxtail, Giant plant response rating ([6]; Preemergence, scale 0 to 100): 100 | Johnsongrass plant response rating ([7]; postemergence, 0-100 scale): 0 | Plant response rating, Johnsongrass [7, 12]: 55 | Plant response rating, Johnsongrass [7, 13]: 95 | Plant response rating, Johnsongrass [7, 14]: 100 | Plant response rating, Johnsongrass [7, 15]: 50 | Plant response rating, Johnsongrass [7, 16]: 80 | Plant response rating, Johnsongrass [7, 17]: 80 | Johnsongrass plant response rating ([7]; Preemergence, scale 0 to 100): 50 | Kochia plant response rating (kochia (Kochia scoparia); postemergence, 0-100 scale): 0 | Plant response rating, Kochia (kochia (Kochia scoparia); [12]): 0 | Plant response rating, Kochia (kochia (Kochia scoparia); [13]): 0 | Plant response rating, Kochia (kochia (Kochia scoparia); [14]): 0 | Plant response rating, Kochia (kochia (Kochia scoparia); [15]): 0 | Plant response rating, Kochia (kochia (Kochia scoparia); [16]): 0 | Plant response rating, Kochia (kochia (Kochia scoparia); [17]): 0 | Kochia plant response rating (kochia (Kochia scoparia); Preemergence, scale 0 to 100): 0 | Lambsquarters plant response rating ([8]; postemergence, 0-100 scale): 0 | Plant response rating, Lambsquarters [8, 12]: 0 | Plant response rating, Lambsquarters [8, 13]: 0 | Plant response rating, Lambsquarters [8, 14]: 0 | Plant response rating, Lambsquarters [8, 15]: 0 | Plant response rating, Lambsquarters [8, 16]: 0 | Plant response rating, Lambsquarters [8, 17]: 0 | Lambsquarters plant response rating ([8]; Preemergence, scale 0 to 100): 0 | Morningglory plant response rating ([9]; postemergence, 0-100 scale): 0 | Plant response rating, Morningglory [9, 12]: 0 | Plant response rating, Morningglory [9, 13]: 0 | Plant response rating, Morningglory [9, 14]: 0 | Plant response rating, Morningglory [9, 15]: 0 | Plant response rating, Morningglory [9, 16]: 0 | Plant response rating, Morningglory [9, 17]: 0 | Morningglory plant response rating ([9]; Preemergence, scale 0 to 100): 0 | Surinam Grass plant response rating ([10]; postemergence, 0-100 scale): 95 | Plant response rating, Surinam Grass [10, 12]: 100 | Plant response rating, Surinam Grass [10, 14]: 100 | Plant response rating, Surinam Grass [10, 15]: 85 | Plant response rating, Surinam Grass [10, 16]: 98 | Plant response rating, Surinam Grass [10, 17]: 100 | Surinam Grass plant response rating ([10]; Preemergence, scale 0 to 100): 65 | Oat, Wild plant response rating (wild oat (Avena fatua); postemergence, 0-100 scale): 85 | Plant response rating, Oat, Wild (wild oat (Avena fatua); [12]): 95 | Plant response rating, Oat, Wild (wild oat (Avena fatua); [13]): 95 | Plant response rating, Oat, Wild (wild oat (Avena fatua); [14]): 98 | Plant response rating, Oat, Wild (wild oat (Avena fatua); [15]): 65 | Plant response rating, Oat, Wild (wild oat (Avena fatua); [16]): 80 | Plant response rating, Oat, Wild (wild oat (Avena fatua); [17]): 95 | Oat, Wild plant response rating (wild oat (Avena fatua); Preemergence, scale 0 to 100): 0 | Nutsedge, Yellow plant response rating ([11]; postemergence, 0-100 scale): 0 | Plant response rating, Nutsedge, Yellow [11, 12]: 0 | Plant response rating, Nutsedge, Yellow [11, 13]: 0 | Plant response rating, Nutsedge, Yellow [11, 14]: 0 | Plant response rating, Nutsedge, Yellow [11, 15]: 0 | Plant response rating, Nutsedge, Yellow [11, 16]: 0 | Plant response rating, Nutsedge, Yellow [11, 17]: 0 | Nutsedge, Yellow plant response rating ([11]; Preemergence, scale 0 to 100): 0
